Experimental data reported in patent publication US11655216B2 (priority 2016, dated 2023).
Like-named read-outs stand apart in the source and are kept apart here.

Assays:
[1] = biological target: T1, glutathione-S-transferase (GST) tagged LXRbeta LBD (ligand binding domain) (Homo sapiens, UniProt P55055); assay: LanthaScreen TR-FRET Liver X Receptor Coactivator Assay, LXR beta; assay type: biochemical; details: for EC50: LXR beta IP, potency (Inflection Point), compound-induced co-activator recruitment, TR-FRET; for Emax: read-out: LXR beta actiivty at max dose, efficacy (% Emax) in relation to reference dual agonist T0901317
T1 construct: purchased Invitrogen pv4658
T1 sequence (P55055 222-460 limits assumed): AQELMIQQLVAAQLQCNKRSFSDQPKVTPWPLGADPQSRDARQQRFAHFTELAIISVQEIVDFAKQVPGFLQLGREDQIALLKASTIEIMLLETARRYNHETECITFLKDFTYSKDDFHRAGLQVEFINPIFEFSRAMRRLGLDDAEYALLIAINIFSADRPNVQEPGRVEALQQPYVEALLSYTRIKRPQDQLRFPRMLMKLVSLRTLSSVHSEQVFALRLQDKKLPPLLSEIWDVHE
How it was run: (§1)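 TR-FRET read-out of coactivator recruitment: fluorescein-coactivator peptide plus Tb-anti-GST antibody added to LBD preincubated with compound; incubated at RT before reading.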

[2] = biological target: T2, glutathione-S-transferase (GST) tagged LXRalpha LBD (ligand binding domain) (Homo sapiens, UniProt Q13133); assay: biochemical
T2 construct: purchased Invitrogen pv4655
T2 sequence (Q13133 209-447 limits assumed): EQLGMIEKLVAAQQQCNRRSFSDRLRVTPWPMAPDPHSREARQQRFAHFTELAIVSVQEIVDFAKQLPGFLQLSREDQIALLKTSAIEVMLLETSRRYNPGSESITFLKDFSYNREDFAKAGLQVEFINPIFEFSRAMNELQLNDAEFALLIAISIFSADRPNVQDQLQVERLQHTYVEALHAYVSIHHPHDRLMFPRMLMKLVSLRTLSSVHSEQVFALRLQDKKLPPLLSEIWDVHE
How it was run: as §1

[3] = potency (Inflection Point), compound-induced co-activator recruitment, TR-FRET
[4] = read-out: LXR alpha actiivty at max dose, efficacy (% Emax) in relation to reference dual agonist T0901317
[5] = LXR alpha IP, potency (Inflection Point), compound-induced co-activator recruitment, TR-FRET
[6] = efficacy (% Emax) in relation to reference dual agonist T0901317

EC50 [1] [nM] | Emax [1] [%] | Emax [2, 4] [%] | EC50 [2, 5] [nM] | LXR alpha actiivty at max dose [2, 6] [%] | Emax ([2]; efficacy (% Emax) in relation to reference dual agonist T0901317, read-out: LXR alpha actiivty at max dose) [%] | EC50 ([2]; potency (Inflection Point), compound-induced co-activator recruitment, TR-FRET, read-out: LXR alpha IP) [nM] | LXR beta actiivty at max dose [1, 6] [%] | SMILES | LXR alpha IP [2, 3] | EC50 ([2]; LXR alpha IP) [nM] | Emax ([2]; read-out: LXR alpha actiivty at max dose) [%]
4 | 68 | 48 | 80 |  |  |  |  | CN(C)C(=O)c1ccc(OCCC2CC23CCN(C(=O)C2(c4ccccc4C(F)(F)F)CCC2)CC3)cc1Cl (single isomer, unassigned) [Example 12-6, (R or S)-2-chloro-N,N-dimethyl-4-(2-(6-(1-(2-(trifluoromethyl)phenyl)cyclobutanecarbonyl)-6-azaspiro[2.5]octan-1-yl)ethoxy)benzamide] |  |  | 
7 | 48 | 42 | 131 |  |  |  |  | O=C(c1ccc(OCCCCC2CCN(C(=O)[C@](O)(c3ccccc3)C(F)(F)F)CC2)cc1Cl)N1CCC[C@H]1CO (single isomer, unassigned) [Example 8-7, (R or S)-1-(4-(4-(3-chloro-4-((S or R)-2-(hydroxymethyl)pyrrolidine-1-carbonyl)phenoxy)butyl)piperidin-1-yl)-3,3,3-trifluoro-2-hydroxy-2-phenylpropan-1-one] |  |  | 
42 | 47 | 23 | 1400 |  |  |  |  | CN(C)C(=O)c1ccc(OCC[C@@H]2CC23CCN(C(=O)[C@](N)(c2ccccc2)C(F)(F)F)CC3)cc1Cl (single isomer, unassigned) [Example 12-21, 4-(2-((S or R)-6-((R or S)-2-amino-3,3,3-trifluoro-2-phenylpropanoyl)-6-azaspiro[2.5]octan-1-yl)ethoxy)-2-chloro-N,N-dimethylbenzamide] |  |  | 
319 | 82 |  |  | 0 |  |  |  | CC(C)C(O)(C(=O)N1CCC(C2CC2COc2ccc(C(=O)N(C)C)c(Cl)c2)CC1)C(F)(F)F (single isomer, unassigned) [Example 32-1, 2-chloro-4-(((1R,2S or 1S,2R)-2-(1-((S or R)-2-hydroxy-3-methyl-2-(trifluoromethyl)butanoyl)piperidin-4-yl)cyclopropyl)methoxy)-N,N-dimethylbenzamide] | No IP |  | 
3 | 54 | 49 | 91 |  |  |  |  | CN(C)C(=O)c1ccc(OCCC2CC23CCN(C(=O)C2(c4ccccc4Cl)CCC2)CC3)cc1Cl (single isomer, unassigned) [Example 12-5, (R or S)-2-chloro-4-(2-(6-(1-(2-chlorophenyl)cyclobutanecarbonyl)-6-azaspiro[2.5]octan-1-yl)ethoxy)-N,N-dimethylbenzamide] |  |  | 
64 | 36 | 9 | 410 |  |  |  |  | O=C(c1ccc(OCCCCC2CCN(C(=O)C(O)(c3ccccc3)C(F)(F)F)CC2)cc1Cl)N1C[C@@H]2CC[C@H]1C2 (single isomer, unassigned) [Example 8-15, (R or S)-1-(4-(4-(4-((1S,4R)-2-azabicyclo[2.2.1]heptane-2-carbonyl)-3-chlorophenoxy)butyl)piperidin-1-yl)-3,3,3-trifluoro-2-hydroxy-2-phenylpropan-1-one] |  |  | 
28 | 86 | 17 | 424 |  |  |  |  | CN(C)C(=O)c1ccc(OCCCC2CC23CCN(C(=O)C2(c4ccccc4)CCCC2)CC3)cc1Cl (single isomer, unassigned) [Example 14-2, (R or S)-2-chloro-N,N-dimethyl-4-(3-(6-(1-phenylcyclopentanecarbonyl)-6-azaspiro[2.5]octan-1-yl)propoxy)benzamide] |  |  | 
136 | 149 | 33 | 1540 |  |  |  |  | CNC(=O)c1ccc(OC[C@H]2C[C@@H]2C2CCN(C(=O)[C@](O)(c3ccccc3)C(F)(F)C(F)(F)F)CC2)cc1Cl (single isomer, unassigned) [Example 32-5, 2-chloro-N-methyl-4-(((1S,2R or 1R,2S)-2-(1-((R or S)-3,3,4,4,4-pentafluoro-2-hydroxy-2-phenylbutanoyl)piperidin-4-yl)cyclopropyl)methoxy) benzamide] |  |  | 
62 | 79 | 37 | 2090 |  |  |  |  | CC(C)[C@@](O)(C(=O)N1CCC2(CC1)C[C@H]2CCOc1ccc(C(=O)N(C)C)c(Cl)c1)C(F)(F)F (single isomer, unassigned) [Example 12-15, 2-chloro-4-(2-((S or R)-6-((R or S)-2-hydroxy-3-methyl-2-(trifluoromethyl)butanoyl)-6-azaspiro[2.5]octan-1-yl)ethoxy)-N,N-dimethylbenzamide] |  |  | 
22 | 74 | 20 | 343 |  |  |  |  | CN(C)C(=O)c1ccc(OCC[C@@H]2CC23CCN(C(=O)C(C)(c2ccccc2)C2CCC2)CC3)cc1Cl (single isomer, unassigned) [Example 12-14, 2-chloro-4-(2-((S or R)-6-((S or R)-2-cyclobutyl-2-phenylpropanoyl)-6-azaspiro[2.5]octan-1-yl)ethoxy)-N,N-dimethylbenzamide] |  |  | 
69 | 61 |  |  |  | 27 | 546 |  | CN(C)C(=O)c1ccc(OCCCC2CC3(CCN(C(=O)C(O)(c4ccccc4)C(F)(F)F)CC3)C2)cc1Cl (single isomer, unassigned) [Example 35-1, 2-chloro-N,N-dimethyl-4-(3-(7-((R or S)-3,3,3-trifluoro-2-hydroxy-2-phenylpropanoyl)-7-azaspiro[3.5]nonan-2-yl)propoxy)benzamide] |  |  | 
75 |  |  | 1160 | 21 |  |  | 84 | COc1cccc(C(O)(C(=O)N2CCC3(CCC(Oc4ccc(C(=O)N(C)C)c(Cl)n4)CC3)CC2)C(F)(F)F)c1 (single isomer, unassigned) [Example 1-3, 2-chloro-N,N-dimethyl-6-(3-((R or S)-3,3,3-trifluoro-2-hydroxy-2-(3-methoxyphenyl)propanoyl)-3-azaspiro[5.5]undecan-9-yloxy)nicotinamide] |  |  | 
25 | 74 | 28 | 2290 |  |  |  |  | CN(C)C(=O)c1ccc(OCCCC2CCN(C(=O)[C@](O)(c3ccccc3)C(F)(F)F)CC2)nc1Cl (single isomer, unassigned) [Example 3-20] |  |  | 

SMILES | EC50 [1] [nM] | Emax [1] [%] | Emax [2, 4] [%] | EC50 [2, 5] [nM] | LXR alpha actiivty at max dose [2, 6] [%] | Emax ([2]; efficacy (% Emax) in relation to reference dual agonist T0901317, read-out: LXR alpha actiivty at max dose) [%] | EC50 ([2]; potency (Inflection Point), compound-induced co-activator recruitment, TR-FRET, read-out: LXR alpha IP) [nM] | LXR beta actiivty at max dose [1, 6] [%] | LXR alpha IP [2, 3] | EC50 ([2]; LXR alpha IP) [nM] | Emax ([2]; read-out: LXR alpha actiivty at max dose) [%]
CN(C)C(=O)c1ccc(OCCCCC2CCN(C(=O)C3(c4ccccc4)CCC3)CC2)cc1Cl [Example 3-7, 2-chloro-N,N-dimethyl-4-(4-(1-(1-phenylcyclobutanecarbonyl)piperidin-4-yl)butoxy)benzamide] | 57 | 54 | 0 |  |  |  |  |  | No IP |  | 
CN(C)C(=O)c1ccc(OCCCCC2CCN(C(=O)C(C)(O)c3ccccc3)CC2)cc1Cl (single isomer, unassigned) [Example 3-10, (S or R)-2-chloro-4-(4-(1-(2-hydroxy-2-phenylpropanoyl)piperidin-4-yl)butoxy)-N,N-dimethylbenzamide] | 353 | 55 | 5 |  |  |  |  |  | No IP |  | 
CN(C)C(=O)c1ccc(OCCCCC2CCN(C(=O)C(O)(c3cccnc3)C(F)(F)F)CC2)nc1Cl (stereo not shown) [Example 6-2, 2-chloro-N,N-dimethyl-6-(4-(1-(3,3,3-trifluoro-2-hydroxy-2-(pyridin-3-yl)propanoyl)piperidin-4-yl)butoxy)nicotinamide] | 8 | 90 | 74 | 1230 |  |  |  |  |  |  | 
CC(C)(C)OC(=O)NC1CN(C(=O)c2ccc(OCCCCC3CCN(C(=O)[C@](O)(c4ccccc4)C(F)(F)F)CC3)cc2Cl)C1 (single isomer, unassigned) [Example 8-11, (R or S)-tert-butyl 1-(2-chloro-4-(4-(1-(3,3,3-trifluoro-2-hydroxy-2-phenylpropanoyl)piperidin-4-yl)butoxy)benzoyl) azetidin-3-ylcarbamate] | 18 | 56 | 32 | 520 |  |  |  |  |  |  | 
CN(C)CCCNC(=O)c1ccc(OCCCCC2CCN(C(=O)[C@](O)(c3ccccc3)C(F)(F)F)CC2)cc1Cl (single isomer, unassigned) [Example 8-19, (R or S)-2-chloro-N-(3-(dimethylamino)propyl)-4-(4-(1-(3,3,3-trifluoro-2-hydroxy-2-phenylpropanoyl)piperidin-4-yl)butoxy) benzamide] | 33 | 53 | 36 | 1240 |  |  |  |  |  |  | 
CN(C)C(=O)c1ccc(O[C@H]2C[C@@H](CC3CCN(C(=O)[C@](O)(c4ccccc4)C(F)(F)F)CC3)C2)cc1Cl (single isomer, unassigned) [Example 37-1, 2-chloro-N,N-dimethyl-4-((1R,3s)-3-((1-((R or S)-3,3,3-trifluoro-2-hydroxy-2-phenylpropanoyl)piperidin-4-yl)methyl)cyclobutoxy)benzamide] | 10 | 131 |  |  |  |  |  |  |  | 381 | 42
